# Assay results published in patent publication US7795290B2 (Genentech, Inc., priority 2004, dated 2010).
# Columns and labels:
# [1] = molecular target: CHEK2 (Homo sapiens, UniProt O96017); test: HTS ATP-utilizing enzyme assay, off-chip mobility-shift (Caliper HTS 250); format: biochemical; details: kinase named = inhibitory activity/selectivity; test compound 10 μM; active = greater than three-sigma from mean
# Summary of the method: (§1)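 Single-point screen at 10 µM compound: kinase reactions ran 2.5 h at 20–22 °C and were stopped with termination buffer. Inhibition was read as the substrate-to-phosphopeptide ratio by microfluidic mobility shift, with EDTA and DMSO wells as controls. Hits were called by three-sigma limits.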
# [2] = molecular target: T1, CASPASE-7 (Homo sapiens, UniProt P55210); test: as above; format: biochemical; details: enzyme named = inhibitory activity/selectivity; test compound 10 μM; active = greater than three-sigma from mean
# T1 sequence (P55210 24-198 limits assumed): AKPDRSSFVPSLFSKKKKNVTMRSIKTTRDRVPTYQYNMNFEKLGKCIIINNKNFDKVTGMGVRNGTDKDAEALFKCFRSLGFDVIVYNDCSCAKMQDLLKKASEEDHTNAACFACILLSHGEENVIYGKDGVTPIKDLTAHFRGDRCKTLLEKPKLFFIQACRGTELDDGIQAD
# T1 sequence (P55210 207-303 limits assumed): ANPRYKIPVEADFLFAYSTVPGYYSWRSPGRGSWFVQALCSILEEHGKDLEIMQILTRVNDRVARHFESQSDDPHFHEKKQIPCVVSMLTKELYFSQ
# Summary of the method: as §1
# Chain of CHEK2 (O96017 whole entry): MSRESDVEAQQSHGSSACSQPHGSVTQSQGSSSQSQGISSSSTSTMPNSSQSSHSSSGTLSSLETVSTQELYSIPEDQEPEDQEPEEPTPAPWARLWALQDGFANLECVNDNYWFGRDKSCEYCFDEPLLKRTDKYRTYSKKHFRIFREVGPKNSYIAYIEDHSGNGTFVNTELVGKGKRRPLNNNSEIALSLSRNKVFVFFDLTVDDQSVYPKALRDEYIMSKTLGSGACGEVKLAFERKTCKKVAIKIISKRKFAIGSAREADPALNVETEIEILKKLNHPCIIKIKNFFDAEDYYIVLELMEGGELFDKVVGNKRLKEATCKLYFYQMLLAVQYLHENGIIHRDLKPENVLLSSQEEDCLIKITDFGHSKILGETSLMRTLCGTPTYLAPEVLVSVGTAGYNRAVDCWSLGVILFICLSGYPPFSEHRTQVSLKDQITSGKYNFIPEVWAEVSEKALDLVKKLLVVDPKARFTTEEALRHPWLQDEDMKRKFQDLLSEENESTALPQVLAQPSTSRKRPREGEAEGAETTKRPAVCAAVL
smiles,measurement,setting,value
"COc1ccc(OC)c(-c2csc(N(CCCN(C)C)C(=O)c3ccccc3)n2)c1 [N-(4-(2,5-dimethoxyphenyl)thiazol-2-yl)-N-(3-(dimethylamino)propyl)benzamide]",Activity,[1],CHEK2
same,Activity,[2],CASPASE-7
